According to patent US20260256771A1, “GALUNISERTIB FOR USE IN THE TREATMENT OF ANDROGENIC ALOPECIA” (SAÚDE VIÁVEL, S.A., priority 2022, published 2026):

Assays:
[1] = system: TGFβ2; assay: qRT-PCR of TGFβ transcripts in dermal papilla isolated from HFOCs; format: cell-based, human; conditions: DP isolated from human HFs cultured ex vivo for 48 h; DHT-treated (1 μM) vs. untreated HFOCs
From the text: Concentration and purity are ascertained in a NanoDrop spectrophotometer.
(§1) In addition, only anagen hair follicles are used.
(§2) Hair growth percentages is normalized to day 0.

[2] = system: phosphorylated SMAD2 (p-SMAD2); assay: Western blot of phospho-SMAD2 in hair bulbs of HFOCs; format: cell-based, human; conditions: untreated vs DHT-treated HFOCs, 72 h
Experimental: For western blot, hair bulbs are dissected from HFOCs treated with DMSO, DHT and Galunisertib for 72 h. Upon rinse in PBS, hair bulbs are lysed in Laemmli buffer (without bromophenol blue) with Halt Protease Inhibitor Cocktail and Halt Phosphatase Inhibitor Cocktail, and lysates are sonicated. Lysates from 10 hair bulbs are used for each condition tested. Total extracts are then loaded in SDS-polyacrylamide gels and transferred onto nitrocellulose membranes for western blot analysis. Membranes are blocked during 1 h with TBS+5% BSA. Primary and secondary antibodies are diluted in TBS+2% BSA accordingly to Supplementary Table 1. Signal is detected using Clarity Western ECL Substrate reagent. A GS-800 calibrated densitometer with Quantity One 1-D Analysis Software 4.6 (Bio-Rad Laboratories) is used for quantitative analysis of protein levels.
as §1, §2

[3] = system: TGFβ1; conditions: DP isolated from human HFs cultured ex vivo for 48 h; DHT-treated (1 μM) vs. untreated HFOCs
Experimental: (§3) For RNA isolation and Quantitative Real-Time PCR (qPCR), Qiagen RNeasy kit (Qiagen, Germany) is used to isolate RNA. Concentration and purity are ascertained in a NanoDrop spectrophotometer. 600 ng of RNA are reverse transcribed into complementary DNA with iScript™ cDNA Synthesis Kit. Quantitative real-time polymerase chain reactions (qPCRs) are performed in a CFX384 Touch™ Real-Time PCR Detection System (Bio-Rad Laboratories). 10 μl reaction mixes are prepared consisting of iTaq™ Universal SYBR® Green Supermix (Bio-Rad Laboratories), forward and reverse primers (at 125 nM each) and cDNA (30 ng). The amplification program used is: 95° C. for 3 min, followed by 39 cycles of 95° C. for 10 s, 60° C. for 35 s, and melt curve from 55° C. to 95° C. with 0.5° C. increment for 10 s. All primers are designed to span at least one […]. Transcript levels are quantified by the 2-ΔΔCt method. ΔCt values are determined by subtracting the geometrical mean of the Ct values for GAPDH and UBQ from the mean target gene Ct value.
(§4) Hair grafts are obtained from male patients aged between 18-55 years with informed consent. A total of 10-20 micrografts are harvested from the occipital scalp of patients diagnosed with androgenic alopecia and undergoing autologous hair transplantation by the routine FUE technique.

[4] = system: TGFβ3; conditions: DP isolated from human HFs cultured ex vivo for 48 h; DHT-treated (1 μM) vs. untreated HFOCs
Experimental: as §3, §4

SMILES: C[C@]12CCC(=O)C[C@@H]1CC[C@@H]1[C@@H]2CC[C@]2(C)[C@@H](O)CC[C@@H]12 [DHT, dihydrotestosterone]
- TGFβ2 transcript levels in DP [1]: slightly increased
- p-SMAD2 protein levels in hair bulbs [2]: equivalent
- TGFβ1 transcript levels in DP [3]: remaining unchanged
- TGFβ3 transcript levels in DP [4]: remaining unchanged
